The source of these data is ChEMBL document CHEMBL1201862, “PubChem BioAssay data set” (2004).

Assay [1] addresses Eukaryotic translation initiation factor 4H (Homo sapiens, UniProt Q15056). The assay is described as follows: human eIF4H binding inhibitors, primary screen, translation initiation inhibitor project, biochemical, uHTS, fluorescence polarization (AID 2012). In general terms: Fluorescence polarisation rises when a labelled molecule tumbles more slowly, as on binding a larger partner.

The target of assay [2] is Polyadenylate-binding protein 1 (Homo sapiens, UniProt P11940). Put plainly: PABP poly(A) RNA binding inhibitors, primary screen, biochemical, fluorescence polarization, uHTS (AID 2014).
Chain of Polyadenylate-binding protein 1 (P11940 whole entry): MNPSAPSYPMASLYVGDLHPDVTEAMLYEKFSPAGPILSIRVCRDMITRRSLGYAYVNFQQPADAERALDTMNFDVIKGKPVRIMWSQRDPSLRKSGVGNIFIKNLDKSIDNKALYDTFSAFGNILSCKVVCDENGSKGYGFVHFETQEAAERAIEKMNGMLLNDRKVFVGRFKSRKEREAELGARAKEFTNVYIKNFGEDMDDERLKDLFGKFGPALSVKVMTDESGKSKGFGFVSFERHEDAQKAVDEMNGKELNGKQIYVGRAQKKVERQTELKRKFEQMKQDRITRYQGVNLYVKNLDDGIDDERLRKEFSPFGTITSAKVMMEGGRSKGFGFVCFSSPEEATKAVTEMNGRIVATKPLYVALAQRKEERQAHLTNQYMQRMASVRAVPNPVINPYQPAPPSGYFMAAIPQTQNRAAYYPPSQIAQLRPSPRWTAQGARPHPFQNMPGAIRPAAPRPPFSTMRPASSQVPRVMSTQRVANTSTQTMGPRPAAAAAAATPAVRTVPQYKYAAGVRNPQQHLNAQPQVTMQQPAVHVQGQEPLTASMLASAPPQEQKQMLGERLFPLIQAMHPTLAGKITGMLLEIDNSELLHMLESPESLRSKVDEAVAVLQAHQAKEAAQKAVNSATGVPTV
Assay [3] is described as follows: A cytotoxicity screen of small molecule inhibitors of the PhoP region in Salmonella typhi identified in the primary screen. [Related pubchem assays: 1850, 1864, 1985 ]. The assay is classed as functional.
A further assay has as its target T1, Aspartyl aminopeptidase (Plasmodium falciparum 3D7, UniProt Q8I2J3).
T1 sequence (Q8I2J3 whole entry): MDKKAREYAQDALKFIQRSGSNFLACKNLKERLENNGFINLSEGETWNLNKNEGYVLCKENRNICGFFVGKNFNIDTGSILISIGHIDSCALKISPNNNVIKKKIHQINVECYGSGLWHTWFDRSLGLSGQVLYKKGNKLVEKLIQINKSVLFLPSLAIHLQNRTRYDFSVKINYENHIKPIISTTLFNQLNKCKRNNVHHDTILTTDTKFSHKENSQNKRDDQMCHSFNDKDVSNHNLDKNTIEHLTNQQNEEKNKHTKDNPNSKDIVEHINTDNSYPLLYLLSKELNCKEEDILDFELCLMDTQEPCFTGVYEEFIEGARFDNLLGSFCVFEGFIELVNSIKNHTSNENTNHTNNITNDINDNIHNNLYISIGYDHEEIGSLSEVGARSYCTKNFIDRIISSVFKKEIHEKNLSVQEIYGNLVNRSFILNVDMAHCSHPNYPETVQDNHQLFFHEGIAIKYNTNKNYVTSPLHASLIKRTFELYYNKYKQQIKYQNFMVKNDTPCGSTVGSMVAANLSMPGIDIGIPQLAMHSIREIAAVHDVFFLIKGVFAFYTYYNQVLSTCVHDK
The assay is described as follows: Counterscreen for inhibitors of M1 and M17 aminopeptidases: QFRET-based biochemical high throughput dose response assay for inhibitors of the Plasmodium falciparum M18 Aspartyl Aminopeptidase (PFM18AAP). [Related PubChem assays: 1619 (Screening assay (M17LAP inhibitors).), 1445 (Screening assay (M1AAP inhibitors).)]. On the technique in general: Counterscreens check selectivity or assay interference.

In a further assay the target is Procathepsin L (Homo sapiens, UniProt P07711). The assay is described as follows: cathepsin L inhibitors, dose response, counter-screen for M1/M17 aminopeptidase inhibitor project, biochemical, QFRET, 1536-well (AID 2214).
Chain of Procathepsin L (P07711 whole entry): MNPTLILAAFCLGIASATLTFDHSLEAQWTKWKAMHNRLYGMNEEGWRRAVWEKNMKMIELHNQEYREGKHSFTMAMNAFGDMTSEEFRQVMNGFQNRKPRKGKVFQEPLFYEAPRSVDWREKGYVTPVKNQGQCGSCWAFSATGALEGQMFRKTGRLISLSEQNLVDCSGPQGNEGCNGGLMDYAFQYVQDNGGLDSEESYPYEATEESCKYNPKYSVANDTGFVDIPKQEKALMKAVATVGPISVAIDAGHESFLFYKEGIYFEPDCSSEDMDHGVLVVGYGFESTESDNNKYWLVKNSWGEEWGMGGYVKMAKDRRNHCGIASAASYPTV
In a further assay the target is T2, Leucine aminopeptidase (Plasmodium falciparum 3D7, UniProt Q8IL11).
T2 sequence (Q8IL11 whole entry): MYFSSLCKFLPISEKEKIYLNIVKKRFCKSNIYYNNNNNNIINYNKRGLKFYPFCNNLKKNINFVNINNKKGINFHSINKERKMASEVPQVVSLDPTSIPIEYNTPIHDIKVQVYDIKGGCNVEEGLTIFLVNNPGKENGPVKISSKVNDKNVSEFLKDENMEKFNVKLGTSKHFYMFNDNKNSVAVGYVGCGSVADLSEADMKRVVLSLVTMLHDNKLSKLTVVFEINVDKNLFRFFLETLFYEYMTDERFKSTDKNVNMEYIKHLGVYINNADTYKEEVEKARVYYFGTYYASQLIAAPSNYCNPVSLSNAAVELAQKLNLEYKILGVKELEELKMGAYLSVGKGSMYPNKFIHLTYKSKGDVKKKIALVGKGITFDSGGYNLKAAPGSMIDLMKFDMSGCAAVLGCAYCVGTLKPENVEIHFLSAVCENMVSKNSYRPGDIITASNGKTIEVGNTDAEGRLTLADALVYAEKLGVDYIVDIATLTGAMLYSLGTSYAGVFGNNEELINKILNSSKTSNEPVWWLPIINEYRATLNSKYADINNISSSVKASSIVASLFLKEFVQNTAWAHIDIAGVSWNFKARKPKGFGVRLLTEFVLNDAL
Put plainly: P. falciparum M17LAP inhibitors, primary screen, biochemical, fluorogenic H-Leu-NHMec substrate, 1536-well (AID 1619). The assay is classed as functional.

The target of assay [4] is Luciferin 4-monooxygenase (Photinus pyralis, UniProt P08659). Put plainly: Counter Screen for Luciferase-based Assay Positives. [Related pubchem assays: 620, 618, 411 ].
Chain of Luciferin 4-monooxygenase (P08659 whole entry): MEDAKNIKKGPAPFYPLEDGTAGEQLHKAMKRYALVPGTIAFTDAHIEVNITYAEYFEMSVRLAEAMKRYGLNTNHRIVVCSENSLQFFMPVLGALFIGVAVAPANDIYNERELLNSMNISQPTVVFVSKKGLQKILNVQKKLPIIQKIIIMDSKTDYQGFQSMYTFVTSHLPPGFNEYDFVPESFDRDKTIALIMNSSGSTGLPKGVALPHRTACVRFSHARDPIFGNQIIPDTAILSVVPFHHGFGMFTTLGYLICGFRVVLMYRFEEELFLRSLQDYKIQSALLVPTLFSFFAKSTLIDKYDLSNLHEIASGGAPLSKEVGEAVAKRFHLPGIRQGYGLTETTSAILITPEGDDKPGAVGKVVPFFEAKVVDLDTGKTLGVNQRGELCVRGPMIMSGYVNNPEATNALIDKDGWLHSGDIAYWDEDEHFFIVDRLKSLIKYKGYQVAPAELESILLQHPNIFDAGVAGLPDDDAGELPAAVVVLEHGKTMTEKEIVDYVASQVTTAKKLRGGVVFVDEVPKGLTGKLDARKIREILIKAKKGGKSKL
The test system of the next assay is HEK293. Put plainly: inhibitors of LMP1-driven NF-kB reporter, dose response, cell-based, HEK293, luciferase, cherry-pick (AID 588343). The class given is functional. The settings on record: Homo sapiens.
In a further assay the test system is HT-1080. The assay is described as follows: cytotoxicity in HT1080 fibrosarcoma cells, cell-based, fluorescence readout (AID 620). The class given is functional. The settings on record: Homo sapiens.
Assay [5] is described as follows: inhibitors of intracellular T. cruzi replication, confirmation, NIH3T3 host cells, beta-gal luminescence (AID 2044).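 Also: intracellular parasites grown in NIH/3T3 mouse fibroblasts as host cells; luminescent beta-galactosidase reporter signal from transgenic T. cruzi replicating inside host cells; inhibitors lower the luminescence signal.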 The class given is functional, cell-based.
The target in assay [6] is T3, Acyl-homoserine lactone acylase PvdQ (Pseudomonas aeruginosa (strain LESB58), UniProt Q9I194).
T3 sequence (Q9I194 whole entry): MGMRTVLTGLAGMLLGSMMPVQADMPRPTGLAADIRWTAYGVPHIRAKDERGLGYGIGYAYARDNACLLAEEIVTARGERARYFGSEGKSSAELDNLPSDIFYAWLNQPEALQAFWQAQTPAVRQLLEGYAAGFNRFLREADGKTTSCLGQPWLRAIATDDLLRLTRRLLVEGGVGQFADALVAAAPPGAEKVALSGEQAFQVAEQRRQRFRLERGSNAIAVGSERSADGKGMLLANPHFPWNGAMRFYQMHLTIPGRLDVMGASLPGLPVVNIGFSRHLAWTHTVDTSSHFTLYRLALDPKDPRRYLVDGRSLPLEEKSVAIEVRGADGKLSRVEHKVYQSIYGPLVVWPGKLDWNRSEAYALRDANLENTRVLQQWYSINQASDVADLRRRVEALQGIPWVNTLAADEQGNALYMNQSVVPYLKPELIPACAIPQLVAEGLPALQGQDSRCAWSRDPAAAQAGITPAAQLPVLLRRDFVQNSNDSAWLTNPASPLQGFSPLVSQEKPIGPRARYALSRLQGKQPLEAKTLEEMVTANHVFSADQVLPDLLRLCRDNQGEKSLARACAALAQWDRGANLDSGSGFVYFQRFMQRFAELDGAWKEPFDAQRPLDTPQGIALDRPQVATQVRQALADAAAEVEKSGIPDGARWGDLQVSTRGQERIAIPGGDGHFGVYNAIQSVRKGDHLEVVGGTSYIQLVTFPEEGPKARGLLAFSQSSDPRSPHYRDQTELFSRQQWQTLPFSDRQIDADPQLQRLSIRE
Put plainly: P. aeruginosa PvdQ acylase inhibitors, dose response, biochemical, fluorescence, plate reader and imaging, cherry-picks (AID 493231).

Assay [7] is described as follows: cytotoxicity toward NIH3T3 fibroblasts, dose response, counter-screen, cell-based, ATP luminescence, mouse fibroblasts (AID 2010).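 Also: cells exposed to compound for about 90 hours before reading.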 The assay is classed as functional.
Assay [8] addresses T4, Ubiquitin-conjugating enzyme E2 N (Homo sapiens, UniProt P61088).
T4 sequence (P61088 whole entry): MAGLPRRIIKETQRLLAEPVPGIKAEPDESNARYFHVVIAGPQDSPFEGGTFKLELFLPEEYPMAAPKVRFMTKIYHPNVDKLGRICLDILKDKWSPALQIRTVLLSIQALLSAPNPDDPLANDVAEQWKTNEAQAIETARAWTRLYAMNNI
The assay is classed as functional.

The test system of assay [9] is BJ. The assay is described as follows: cells. The conditions noted are these: Homo sapiens. The class given is functional, cell-based.
Assay [10] in a line: cytotoxicity in HEK-293T cells, dose response, cytotoxicity control for TCR NF-kB inhibitor project, luminescence, T-cell screen hits (AID 489026).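 Also: cells exposed to compound about 14 hours before the viability readout.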 The assay is classed as functional, cell-based.
The nature of assay [11]: inhibitors of SNCA 5'UTR-driven reporter translation, confirmation, H4 neuroglioma cells, luminescence (AID 1988). The assay is classed as functional, cell-based.
Assay [12] in a line: cytotoxicity toward DRD oncogenic fibroblasts, dose response, cell-based, non-viral oncogenic, luminescence (AID 1934). The assay is classed as functional. The conditions noted are these: Homo sapiens.
A short description of assay [13]: inhibitors of firefly luciferase expression or activity, dose response, H4 neuroglioma cells, luminescence (AID 1990). The class given is functional, cell-based.
A short description of a further assay: cells. The class given is functional, cell-based.
The target of another assay is T5, CAAX prenyl protease 2 (Homo sapiens, UniProt Q9Y256).
T5 sequence (Q9Y256 whole entry): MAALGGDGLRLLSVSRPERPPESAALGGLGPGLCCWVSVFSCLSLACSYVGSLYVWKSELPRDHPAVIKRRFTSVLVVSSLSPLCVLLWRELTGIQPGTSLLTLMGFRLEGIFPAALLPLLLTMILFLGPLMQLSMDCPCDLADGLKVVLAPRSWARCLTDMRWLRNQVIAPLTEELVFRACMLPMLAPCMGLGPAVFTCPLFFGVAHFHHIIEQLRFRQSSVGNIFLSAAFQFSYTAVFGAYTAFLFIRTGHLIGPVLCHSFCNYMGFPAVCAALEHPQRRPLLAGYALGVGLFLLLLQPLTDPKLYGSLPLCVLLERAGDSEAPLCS
The assay is described as follows: human Rce1 protease inhibitors, dose response, biochemical, yeast membranes, quenched-peptide fluorescence, cherry-pick (AID 588849).

A short description of assay [14]: inhibitors of SNCA 5'UTR-driven translation, confirmation, luminescence, H4 neuroglioblastoma cells, dose confirmation (AID 2454).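 Also: H4 neuroglioblastoma cells carrying an alpha-synuclein 5'UTR luciferase reporter; potency for inhibition of the luciferase signal.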 The class given is functional, cell-based.
Assay [15] in a line: luciferase reporter signal reduction – luminescence, H4-C neuroglioblastoma cells, dose response (AID 2458).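 Also: H4 neuroglioblastoma cells stably carrying a luciferase reporter gene fusion.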 The class given is functional, cell-based. In general terms: Reporter assays use an easily measured gene product as a stand-in for the process of interest.
Assay [16] deals with BJ. The assay is described as follows: cytotoxicity toward BJ-TERT fibroblasts, dose response, cell-based, RAS-independent, luminescence (AID 1933). The settings on record: Homo sapiens. The assay is classed as functional.
Assay [17] addresses Eukaryotic translation initiation factor 4E (Mus musculus, UniProt P63073). Put plainly: eIF4E–eIF4G protein interaction inhibitors, dose response, biochemical, TR-FRET (AID 855).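 Also: potency for disrupting eIF4E binding to eIF4GI seen as loss of FRET.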 The class given is functional.

Calls of active or inactive are those of the source. Some results are limits rather than exact numbers.

As a reminder, the IC50 is the concentration at which inhibition is half-maximal. One may read the EC50 as the concentration that produces a half-maximal response. The AC50 is the concentration giving half of the maximal activity seen.

Chain of Eukaryotic translation initiation factor 4E (P63073 whole entry): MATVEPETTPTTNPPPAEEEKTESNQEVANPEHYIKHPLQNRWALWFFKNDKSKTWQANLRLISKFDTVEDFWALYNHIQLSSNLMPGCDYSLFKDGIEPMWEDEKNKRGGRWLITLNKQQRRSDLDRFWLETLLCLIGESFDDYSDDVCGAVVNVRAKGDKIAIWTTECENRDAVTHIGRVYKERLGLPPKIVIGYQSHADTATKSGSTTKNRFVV

As for `O=C(NC(Cc1ccccc1)C(=O)Oc1ccc2c(C(F)(F)F)cc(=O)oc2c1)OCc1ccccc1` (configuration not stated), the IC50 in assay [1] and in assay [2] was > 100 µM (inactive) each time.
As to `CNc1nc(SC)n(C)c(=O)c1N=O`, the EC50 in assay [3] was > 50 µM (active).
On to `COC(=O)c1c(-c2ccc(C)cc2)csc1NC(=O)C1CC=CCC1C(=O)O` (configuration not stated), for which the IC50 against Aspartyl aminopeptidase is > 73.5 µM (not active); against Procathepsin L, > 59.6 µM (not active); on Leucine aminopeptidase, 1.2 µM (active).
In the case of `c1ccc(OCCSc2nnc3sc4ccccc4n23)cc1`, the EC50 in [4] is > 100 µM (not active); with HT-1080, 14.8 µM (active). Besides, the AC50 in the assay on HEK293 is 1.29 µM (active).
For the compound `O=C(NCC1CC1)c1cc([N+](=O)[O-])cc([N+](=O)[O-])c1`, the concentration giving a half-maximal response (EC50) was 0.622 µM (active) in assay [5] and > 60 µM (not active) in assay [7]. Besides, the AC50 in assay [6] is 3.55 µM (active).
As for `O=S(=O)(c1ccc(NC(=S)NN=C(C2CC2)C2CC2)cc1)N1CCOCC1`, in [8], the IC50 was > 20 µM (inactive).
On to `COc1cccc(Cn2cnc3c([N+](=O)[O-])c(C)c(C)cc32)c1`, for which the IC50 in assay [8] was > 20 µM (inactive).
Consider `Cc1cc(NC(=O)c2cc([N+](=O)[O-])ccc2Cl)no1`, for which, in [6], the AC50 was 3.71 µM (active).
Turning to `COc1ccccc1-c1nnc2sc(-c3ccc(N(C)C)cc3)nn12`, the EC50 was 0.637 µM (active) with BJ [9]; < 0.1 µM (active) in [11]; 0.202 µM (active) in [12]; < 0.1 µM (active) in assay [13]; 0.29 µM (active) in the assay “cells”; 0.179 µM (active) in assay [14]. Also, the concentration for a half-maximal effect (EC50) is 0.143 µM (active) in assay [15] and 0.179 µM (active) in the assay with BJ [16]. Besides, the IC50 in assay [10] was > 80 µM (inactive). Further, the AC50 at CAAX prenyl protease 2 was 1.02 µM (active).
Regarding `CCOc1ccc(C(=O)Nc2cccc(C)n2)cc1`, the AC50 in assay [6] is 19.3 µM (active).
As for `COc1ccc(NC(=O)CSc2nc(O)cc(=O)n2C)cc1`, the values for the IC50 against Aspartyl aminopeptidase, against Procathepsin L and on Leucine aminopeptidase were > 73.5 µM (not active), > 59.6 µM (not active) and 2.59 µM (active), respectively.
For `CCOc1ccc(C2CC(=O)NC(SCC(=O)OC)=C2C#N)cc1` (configuration not stated), the EC50 in assay [3] was > 50 µM (active).
Same read-out and setting: in the case of `O=C(CSc1nnc(-c2ccccc2)n1-c1ccc(Cl)cc1)NC1CCS(=O)(=O)C1` (configuration not stated) it was > 50 µM (active).
Take `O=C1OC(c2ccccc2)=C/C1=C\c1ccc(-c2ccc([N+](=O)[O-])cc2)o1`: the IC50 in [17] was 50 µM (inactive).
